{"source": "patent US20110082162A1", "about": "“SYNERGISTIC FUNGICIDAL COMPOSITION CONTAINING 5-FLUOROCYTOSINE FOR FUNGAL CONTROL IN CEREALS” (DOW AGROSCIENCES LLC, priority 2009, published 2011)", "key": {"[1]": {"test_system": "Septoria tritici (SEPTTR; Mycosphaerella graminicola)", "assay": "3-day curative (3DC) test vs. leaf blotch of wheat, inoculation 3 days before fungicide treatment", "type": "in vivo, Septoria tritici on wheat plants (variety Yuma)", "conditions": "Zymoseptoria tritici, read-out: % DC Obs (percent disease control observed); for pest or weed control at 0.6 ppm: applied alone at 0.6 ppm; for pest or weed control at 1.8 ppm: applied alone at 1.8 ppm", "procedure": "(§1) Evaluation of Curative and Protectant Activity of Fungicide Mixtures vs. Leaf Blotch of Wheat (Mycosphaerella graminicola; anamorph: Septoria tritici; Bayer code: SEPTTR)\n(§2) Wheat plants (variety Yuma) were grown from seed in a greenhouse in plastic pots with a surface area of 27.5 square centimeters (cm2) containing 50% mineral soil/50% soil-less Metro mix, with 8-12 seedlings per pot. The plants were employed for testing when the first leaf was fully emerged, which typically took 7 to 8 days after planting. Test plants were inoculated with an aqueous spore suspension of Septoria tritici either 3 days prior to (3-day curative test; 3DC) or 1 day after fungicide treatments (1-day protectant test; 1DP). After inoculation the plants were kept at 100% relative humidity (one day in a dark dew chamber followed by two days in a lighted mist chamber) to permit spores to germinate and infect the leaf. The plants were then transferred to a greenhouse until disease symptoms were fully expressed.\n(§3) Treatments consisted of fungicides, including a compound of Formula I, epoxiconazole, prothioconazole, azoxystrobin, pyraclostrobin, penthiopyrad, isopyrazam, bixafen, boscalid, chlorothalonil and isobutyric acid (3S,6S,7R,8R)-8-benzyl-3-[(3-isobutyryloxymethoxy-4-methoxypyridine-2-carbonyl)-amino]-6-methyl-4,9-dioxo-[1,5]dioxonan-7-yl ester (compound A), applied either individually or as two-way mixtures with a compound of Formula I. 1% of water solution of a compound with Formula I was used in the tests. Technical grades of other materials were dissolved in acetone to make stock solutions, which were then used to perform three-fold dilutions in acetone either for each individual fungicide component or for the two-way mixtures. Desired fungicide rates were obtained after mixing dilutions with nine volumes of water containing 110 parts per million (ppm) Triton X-100. Ten milliliter (mL) fungicide solutions were applied onto six pots of plants using an automated booth sprayer, which utilized two 6218-1/4 JAUPM spray nozzles operating at 20 pounds per square inch (psi) set at opposing angles to cover both leaf surfaces. All sprayed plants were allowed to air dry prior to further handling. Control plants were sprayed in the same manner with the solvent blank.\n(§4) When disease reached 80 to 100% on the control plants, infection levels were assessed on treated plants visually and scored on a scale of 0 to 100 percent. Percentage of disease control was then calculated using the ratio of disease on treated plants relative to control plants.\n(§5) Colby's equation was used to determine the fungicidal effects expected from the mixtures. (See Colby, S. R. Calculation of the synergistic and antagonistic response of herbicide combinations. Weeds 1967, 15, 20-22.)\n(§6) The following equation was used to calculate the expected activity of mixtures containing two active ingredients, A and B:\n(§7) A=observed efficacy of active component A at the same concentration as used in the mixture;\n(§8) B=observed efficacy of active component B at the same concentration as used in the mixture."}, "[2]": {"test_system": "Septoria tritici (SEPTTR; Mycosphaerella graminicola)", "assay": "1-day protectant (1DP) test vs. leaf blotch of wheat, fungicide applied 1 day before inoculation", "type": "in vivo, Septoria tritici on wheat plants (variety Yuma)", "conditions": "Zymoseptoria tritici, read-out: % DC Obs (percent disease control observed)", "procedure": "as §1, §2, §3, §4, §5, §6, §7, §8"}, "[3]": {"conditions": "1DP SEPTTR, applied alone at 0.6 ppm"}, "[4]": {"conditions": "1DP SEPTTR, applied alone at 1.8 ppm"}}}
{"molecule": "N#Cc1c(Cl)c(Cl)c(Cl)c(C#N)c1Cl", "note": "[Chlorothalonil, 2,4,5,6-tetrachloro-1,3-benzenedicarbonitrile]", "values": [{"measurement": "pest or weed control at 13.5 ppm", "setting": "[1]; 3DC SEPTTR, applied alone at 13.5 ppm", "result": 0, "unit": "%"}, {"measurement": "pest or weed control at 42 ppm", "setting": "[1]; 3DC SEPTTR, applied alone at 42 ppm", "result": 0, "unit": "%"}, {"measurement": "pest or weed control at 13.5 ppm", "setting": "[2]; 1DP SEPTTR, applied alone at 13.5 ppm", "result": 13, "unit": "%"}, {"measurement": "pest or weed control at 42 ppm", "setting": "[2]; 1DP SEPTTR, applied alone at 42 ppm", "result": 8, "unit": "%"}]}
{"molecule": "CO/C=C(/C(=O)OC)c1ccccc1Oc1cc(Oc2ccccc2C#N)ncn1", "note": "[Azoxystrobin, methyl (αE)-2-[[6-(2-cyanophenoxy)-4-pyrimidinyl]oxy]-α-(methoxymethylene)benzeneacetate]", "values": [{"measurement": "pest or weed control at 0.6 ppm", "setting": "[1]; 3DC SEPTTR", "result": 22, "unit": "%"}, {"measurement": "pest or weed control at 1.8 ppm", "setting": "[1]; 3DC SEPTTR", "result": 59, "unit": "%"}, {"measurement": "pest or weed control at 0.6 ppm", "setting": "[2]; [3]", "result": 21, "unit": "%"}, {"measurement": "pest or weed control at 1.8 ppm", "setting": "[2]; [4]", "result": 32, "unit": "%"}]}
{"molecule": "COc1ccnc(C(=O)N[C@H]2COC(=O)[C@H](Cc3ccccc3)[C@@H](OC(=O)C(C)C)[C@H](C)OC2=O)c1OCOC(=O)C(C)C", "note": "[Compound A, Isobutyric acid (3S,6S,7R,8R)-8-benzyl-3-[(3-isobutyryloxymethoxy-4-methoxy-pyridine-2-carbonyl)-amino]-6-methyl-4,9-dioxo-[1,5]dioxonan-7-yl ester]", "values": [{"measurement": "pest or weed control at 1.35 ppm", "setting": "[1]", "result": 6, "unit": "%"}]}
{"molecule": "Cn1cc(C(=O)Nc2ccc(F)cc2-c2ccc(Cl)c(Cl)c2)c(C(F)F)n1", "note": "[Bixafen, N-(3′,4′-dichloro-5-fluoro[1,1′-biphenyl]-2-yl)-3-(difluoromethyl)-1-methyl-1H-pyrazole-4-carboxamide]", "values": [{"measurement": "pest or weed control at 0.6 ppm", "setting": "[2]", "result": 14, "unit": "%"}, {"measurement": "pest or weed control at 1.8 ppm", "setting": "[2]", "result": 71, "unit": "%"}]}
{"molecule": "CC(C)C1C2CCC1c1c(NC(=O)c3cn(C)nc3C(F)F)cccc12", "note": "(stereo not drawn) [Isopyrazam, 3-(difluoromethyl)-1-methyl-N-[1,2,3,4-tetrahydro-9-(1-methylethyl)-1,4-methanonaphthalen-5-yl]-1H-pyrazole-4-carboxamide]", "values": [{"measurement": "pest or weed control at 0.06 ppm", "setting": "[1]", "result": 22, "unit": "%"}, {"measurement": "pest or weed control at 0.06 ppm", "setting": "[2]", "result": 5, "unit": "%"}, {"measurement": "pest or weed control at 0.2 ppm", "setting": "[2]", "result": 9, "unit": "%"}, {"measurement": "pest or weed control at 0.6 ppm", "setting": "[2]", "result": 19, "unit": "%"}]}
{"molecule": "CC(C)CC(C)c1sccc1NC(=O)c1cn(C)nc1C(F)(F)F", "note": "(stereo not drawn) [Penthiopyrad, N-[2-(1,3-dimethylbutyl)-3-thienyl]-1-methyl-3-(trifluoromethyl)-1H-pyrazole-4-carboxamide]", "values": [{"measurement": "pest or weed control at 1.8 ppm", "setting": "[1]; 3DC SEPTTR", "result": 24, "unit": "%"}, {"measurement": "pest or weed control at 0.6 ppm", "setting": "[2]; [3]", "result": 7, "unit": "%"}, {"measurement": "pest or weed control at 1.8 ppm", "setting": "[2]; [4]", "result": 30, "unit": "%"}]}
{"molecule": "OC(Cc1ccccc1Cl)(Cn1[nH]cnc1=S)C1(Cl)CC1", "note": "(stereo not drawn) [Prothioconazole, 2-[2-(1-chlorocyclopropyl)-3-(2-chlorophenyl)-2-hydroxypropyl]-1,2-dihydro-3H-1,2,4-triazole-3-thione]", "values": [{"measurement": "pest or weed control at 0.6 ppm", "setting": "[1]; 3DC SEPTTR", "result": 12, "unit": "%"}, {"measurement": "pest or weed control at 1.8 ppm", "setting": "[1]; 3DC SEPTTR", "result": 25, "unit": "%"}, {"measurement": "pest or weed control at 0.6 ppm", "setting": "[2]; [3]", "result": 18, "unit": "%"}, {"measurement": "pest or weed control at 1.8 ppm", "setting": "[2]; [4]", "result": 25, "unit": "%"}]}
{"molecule": "O=C(Nc1ccccc1-c1ccc(Cl)cc1)c1cccnc1Cl", "note": "[Boscalid, 2-chloro-N-(4′-chloro[1,1′-biphenyl]-2-yl)-3-pyridinecarboxamide]", "values": [{"measurement": "pest or weed control at 1.8 ppm", "setting": "[1]; 3DC SEPTTR", "result": 8, "unit": "%"}, {"measurement": "pest or weed control at 1.8 ppm", "setting": "[2]; [4]", "result": 9, "unit": "%"}]}
{"molecule": "Fc1ccc([C@]2(Cn3cncn3)O[C@H]2c2ccccc2Cl)cc1", "note": "(racemic) [Epoxiconazole, rel-1-[[(2R,3S)-3-(2-chlorophenyl)-2-(4-fluorophenyl)oxiranyl]methyl]-1H-1,2,4-triazole]", "values": [{"measurement": "pest or weed control at 0.0375 ppm", "setting": "[2]; 1DP SEPTTR, applied alone at 0.0375 ppm", "result": 15, "unit": "%"}, {"measurement": "pest or weed control at 0.125 ppm", "setting": "[2]; 1DP SEPTTR, applied alone at 0.125 ppm", "result": 27, "unit": "%"}]}
{"molecule": "Nc1nc(O)ncc1F", "note": "[Compound I, 5-FLUOROCYTOSINE]", "values": [{"measurement": "pest or weed control at 0.03 ppm", "setting": "[1]; 3DC SEPTTR, applied alone at 0.03 ppm", "result": 4, "unit": "%"}, {"measurement": "pest or weed control at 0.1 ppm", "setting": "[1]; 3DC SEPTTR, applied alone at 0.1 ppm", "result": 33, "unit": "%"}, {"measurement": "pest or weed control at 0.3 ppm", "setting": "[1]; 3DC SEPTTR, applied alone at 0.3 ppm", "result": 67, "unit": "%"}, {"measurement": "pest or weed control at 0.9 ppm", "setting": "[1]; 3DC SEPTTR, applied alone at 0.9 ppm", "result": 75, "unit": "%"}, {"measurement": "pest or weed control at 2.8 ppm", "setting": "[1]; 3DC SEPTTR, applied alone at 2.8 ppm", "result": 94, "unit": "%"}, {"measurement": "pest or weed control at 0.03 ppm", "setting": "[2]; 1DP SEPTTR, applied alone at 0.03 ppm", "result": 13, "unit": "%"}, {"measurement": "pest or weed control at 0.1 ppm", "setting": "[2]; 1DP SEPTTR, applied alone at 0.1 ppm", "result": 11, "unit": "%"}, {"measurement": "pest or weed control at 0.3 ppm", "setting": "[2]; 1DP SEPTTR, applied alone at 0.3 ppm", "result": 8, "unit": "%"}, {"measurement": "pest or weed control at 0.9 ppm", "setting": "[2]; 1DP SEPTTR, applied alone at 0.9 ppm", "result": 18, "unit": "%"}, {"measurement": "pest or weed control at 2.8 ppm", "setting": "[2]; 1DP SEPTTR, applied alone at 2.8 ppm", "result": 79, "unit": "%"}]}
